Reference: ChEMBL document CHEMBL1681705, “Optimisation of ITK inhibitors through successive iterative design cycles” (Bioorg Med Chem Lett, 2011)

What was measured:
[1] = target: T1, Ephrin type-A receptor 1 (Homo sapiens) (UniProt P21709); test: Inhibition of EphA1 at 0.1 uM; values are per cent of control
T1 sequence (whole entry): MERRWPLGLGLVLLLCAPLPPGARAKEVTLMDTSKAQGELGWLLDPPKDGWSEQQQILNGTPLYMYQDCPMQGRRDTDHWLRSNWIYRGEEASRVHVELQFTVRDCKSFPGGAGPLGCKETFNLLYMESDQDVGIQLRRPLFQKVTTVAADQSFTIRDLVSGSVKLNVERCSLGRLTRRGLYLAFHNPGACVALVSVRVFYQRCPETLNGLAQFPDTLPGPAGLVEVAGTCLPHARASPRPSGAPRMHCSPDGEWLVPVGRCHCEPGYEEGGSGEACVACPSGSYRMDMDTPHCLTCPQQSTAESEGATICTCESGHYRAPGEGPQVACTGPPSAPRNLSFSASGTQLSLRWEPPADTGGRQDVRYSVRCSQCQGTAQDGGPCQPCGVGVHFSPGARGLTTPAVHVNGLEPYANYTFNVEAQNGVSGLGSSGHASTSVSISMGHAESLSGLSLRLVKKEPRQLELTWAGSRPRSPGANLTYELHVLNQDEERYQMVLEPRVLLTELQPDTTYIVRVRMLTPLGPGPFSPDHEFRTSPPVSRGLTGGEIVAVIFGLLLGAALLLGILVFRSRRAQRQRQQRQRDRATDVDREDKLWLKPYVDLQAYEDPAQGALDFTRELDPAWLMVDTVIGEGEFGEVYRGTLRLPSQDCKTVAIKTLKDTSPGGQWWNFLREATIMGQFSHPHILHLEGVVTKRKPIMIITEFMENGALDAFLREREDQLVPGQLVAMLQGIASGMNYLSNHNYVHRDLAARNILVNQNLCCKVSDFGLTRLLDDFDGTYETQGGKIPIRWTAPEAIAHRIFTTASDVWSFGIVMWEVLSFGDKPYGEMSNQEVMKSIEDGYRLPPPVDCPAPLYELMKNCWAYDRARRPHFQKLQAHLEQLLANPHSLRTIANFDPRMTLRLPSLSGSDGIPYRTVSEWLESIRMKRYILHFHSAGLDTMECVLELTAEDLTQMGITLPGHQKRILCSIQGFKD

[2] = target: Angiopoietin-1 receptor (Homo sapiens) (UniProt Q02763); test: Inhibition of Tie2 at 0.1 uM; values are per cent of control
Chain of Angiopoietin-1 receptor (Homo sapiens) (Q02763 whole entry): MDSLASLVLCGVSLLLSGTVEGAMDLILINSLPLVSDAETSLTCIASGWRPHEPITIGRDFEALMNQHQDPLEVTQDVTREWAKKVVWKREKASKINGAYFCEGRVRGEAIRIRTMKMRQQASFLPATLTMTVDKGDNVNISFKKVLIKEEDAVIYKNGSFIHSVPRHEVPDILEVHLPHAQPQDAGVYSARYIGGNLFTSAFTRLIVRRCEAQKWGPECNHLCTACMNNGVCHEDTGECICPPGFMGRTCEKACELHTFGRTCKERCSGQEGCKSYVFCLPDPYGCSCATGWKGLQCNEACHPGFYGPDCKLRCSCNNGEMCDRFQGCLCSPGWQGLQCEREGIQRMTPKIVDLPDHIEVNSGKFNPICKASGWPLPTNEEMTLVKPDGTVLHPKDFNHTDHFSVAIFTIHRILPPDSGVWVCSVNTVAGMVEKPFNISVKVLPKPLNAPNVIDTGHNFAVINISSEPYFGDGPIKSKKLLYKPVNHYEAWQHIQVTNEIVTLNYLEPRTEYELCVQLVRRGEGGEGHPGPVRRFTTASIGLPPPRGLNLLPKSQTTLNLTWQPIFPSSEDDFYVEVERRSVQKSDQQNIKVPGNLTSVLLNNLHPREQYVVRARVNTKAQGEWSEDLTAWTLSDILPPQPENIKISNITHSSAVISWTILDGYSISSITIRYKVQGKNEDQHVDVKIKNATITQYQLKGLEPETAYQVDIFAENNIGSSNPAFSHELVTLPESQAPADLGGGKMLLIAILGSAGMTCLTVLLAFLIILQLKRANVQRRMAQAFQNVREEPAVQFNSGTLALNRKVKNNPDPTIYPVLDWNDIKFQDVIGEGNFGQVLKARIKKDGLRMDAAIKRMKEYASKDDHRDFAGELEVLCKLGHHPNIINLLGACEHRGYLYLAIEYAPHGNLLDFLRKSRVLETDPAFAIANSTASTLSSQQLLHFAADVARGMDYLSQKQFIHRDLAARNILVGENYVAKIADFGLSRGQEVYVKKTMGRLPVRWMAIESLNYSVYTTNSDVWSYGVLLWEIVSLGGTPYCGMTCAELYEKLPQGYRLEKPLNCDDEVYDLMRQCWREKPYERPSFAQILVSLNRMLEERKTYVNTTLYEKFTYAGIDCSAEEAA

[3] = target: T2, Ephrin type-A receptor 3 (Homo sapiens) (UniProt P29320); test: Inhibition of EphA3 at 0.1 uM; values are per cent of control
T2 sequence (whole entry): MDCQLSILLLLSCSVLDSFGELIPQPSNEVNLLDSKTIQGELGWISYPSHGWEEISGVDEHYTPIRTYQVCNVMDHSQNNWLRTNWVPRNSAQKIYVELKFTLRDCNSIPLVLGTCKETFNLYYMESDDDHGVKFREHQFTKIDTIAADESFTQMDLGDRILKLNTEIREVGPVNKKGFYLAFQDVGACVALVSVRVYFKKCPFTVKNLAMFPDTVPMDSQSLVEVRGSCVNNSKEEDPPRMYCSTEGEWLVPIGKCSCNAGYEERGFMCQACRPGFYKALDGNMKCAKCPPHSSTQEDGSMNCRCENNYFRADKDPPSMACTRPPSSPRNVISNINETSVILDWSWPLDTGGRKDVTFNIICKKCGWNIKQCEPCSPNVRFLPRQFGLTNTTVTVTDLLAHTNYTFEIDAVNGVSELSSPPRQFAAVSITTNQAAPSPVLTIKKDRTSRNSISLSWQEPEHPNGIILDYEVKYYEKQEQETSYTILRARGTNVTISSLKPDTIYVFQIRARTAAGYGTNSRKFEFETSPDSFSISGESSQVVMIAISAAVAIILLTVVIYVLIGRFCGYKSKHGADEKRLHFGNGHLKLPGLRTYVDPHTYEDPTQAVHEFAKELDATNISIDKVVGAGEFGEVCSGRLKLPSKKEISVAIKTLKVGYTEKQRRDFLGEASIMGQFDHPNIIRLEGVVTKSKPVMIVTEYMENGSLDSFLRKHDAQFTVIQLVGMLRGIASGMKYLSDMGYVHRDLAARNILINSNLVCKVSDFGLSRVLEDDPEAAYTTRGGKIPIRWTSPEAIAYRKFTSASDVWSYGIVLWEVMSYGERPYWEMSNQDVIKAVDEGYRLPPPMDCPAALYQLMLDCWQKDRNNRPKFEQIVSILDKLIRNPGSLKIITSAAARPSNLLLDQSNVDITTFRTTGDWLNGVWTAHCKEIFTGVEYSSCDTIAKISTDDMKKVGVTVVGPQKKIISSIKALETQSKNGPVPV

[4] = target: Proto-oncogene tyrosine-protein kinase receptor Ret (Homo sapiens) (UniProt P07949); test: Inhibition of Ret at 1 uM; values are per cent of control
Chain of Proto-oncogene tyrosine-protein kinase receptor Ret (Homo sapiens) (P07949 whole entry): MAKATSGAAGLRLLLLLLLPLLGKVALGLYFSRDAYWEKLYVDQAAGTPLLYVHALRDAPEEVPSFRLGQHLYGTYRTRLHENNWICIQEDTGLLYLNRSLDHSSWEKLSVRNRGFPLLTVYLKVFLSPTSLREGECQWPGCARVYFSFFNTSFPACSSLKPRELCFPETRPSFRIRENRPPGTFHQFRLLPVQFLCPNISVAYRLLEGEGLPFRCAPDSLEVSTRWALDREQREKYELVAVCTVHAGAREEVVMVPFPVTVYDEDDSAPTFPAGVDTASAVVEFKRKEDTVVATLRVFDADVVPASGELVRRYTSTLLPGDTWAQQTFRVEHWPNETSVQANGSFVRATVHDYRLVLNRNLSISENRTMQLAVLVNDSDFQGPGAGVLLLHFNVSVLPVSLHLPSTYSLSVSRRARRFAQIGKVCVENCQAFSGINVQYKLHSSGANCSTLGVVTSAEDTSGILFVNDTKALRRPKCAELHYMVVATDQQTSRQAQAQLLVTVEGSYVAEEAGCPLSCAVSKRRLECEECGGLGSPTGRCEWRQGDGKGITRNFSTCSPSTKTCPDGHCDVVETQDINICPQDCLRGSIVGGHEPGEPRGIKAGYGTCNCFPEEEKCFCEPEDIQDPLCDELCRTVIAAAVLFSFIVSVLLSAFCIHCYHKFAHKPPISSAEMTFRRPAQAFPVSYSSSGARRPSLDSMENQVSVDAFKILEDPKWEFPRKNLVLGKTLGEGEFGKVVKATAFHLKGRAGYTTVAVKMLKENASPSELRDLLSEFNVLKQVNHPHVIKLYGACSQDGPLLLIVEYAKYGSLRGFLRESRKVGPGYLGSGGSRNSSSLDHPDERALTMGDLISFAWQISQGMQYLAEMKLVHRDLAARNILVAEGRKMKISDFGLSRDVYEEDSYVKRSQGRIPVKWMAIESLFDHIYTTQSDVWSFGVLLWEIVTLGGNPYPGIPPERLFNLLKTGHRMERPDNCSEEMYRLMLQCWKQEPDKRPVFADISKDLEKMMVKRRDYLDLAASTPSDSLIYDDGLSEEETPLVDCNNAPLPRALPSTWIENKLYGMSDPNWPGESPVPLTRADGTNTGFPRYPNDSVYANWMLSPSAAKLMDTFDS

[5] = target: Tyrosine-protein kinase Fgr (Homo sapiens) (UniProt P09769); test: Inhibition of Fgr at 0.1 uM; values are per cent of control
Chain of Tyrosine-protein kinase Fgr (Homo sapiens) (P09769 2-529 limits assumed): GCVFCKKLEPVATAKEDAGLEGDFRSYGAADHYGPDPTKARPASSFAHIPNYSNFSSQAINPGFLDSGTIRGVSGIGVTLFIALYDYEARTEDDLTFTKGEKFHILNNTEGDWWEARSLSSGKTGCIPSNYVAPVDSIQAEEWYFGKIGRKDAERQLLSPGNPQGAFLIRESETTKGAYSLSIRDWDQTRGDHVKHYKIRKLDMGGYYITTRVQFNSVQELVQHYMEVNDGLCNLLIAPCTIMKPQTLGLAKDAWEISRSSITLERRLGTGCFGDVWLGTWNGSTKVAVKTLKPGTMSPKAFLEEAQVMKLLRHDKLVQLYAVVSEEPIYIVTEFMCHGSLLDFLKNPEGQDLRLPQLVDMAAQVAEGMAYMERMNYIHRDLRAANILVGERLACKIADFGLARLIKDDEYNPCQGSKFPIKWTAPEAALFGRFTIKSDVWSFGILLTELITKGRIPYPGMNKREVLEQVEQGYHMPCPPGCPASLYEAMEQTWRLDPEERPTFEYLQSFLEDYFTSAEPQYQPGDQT

[6] = target: T3, Serine/threonine-protein kinase Chk1 (Homo sapiens) (UniProt O14757); test: Inhibition of CHK1 at 1 uM; values are per cent of control
T3 sequence (whole entry): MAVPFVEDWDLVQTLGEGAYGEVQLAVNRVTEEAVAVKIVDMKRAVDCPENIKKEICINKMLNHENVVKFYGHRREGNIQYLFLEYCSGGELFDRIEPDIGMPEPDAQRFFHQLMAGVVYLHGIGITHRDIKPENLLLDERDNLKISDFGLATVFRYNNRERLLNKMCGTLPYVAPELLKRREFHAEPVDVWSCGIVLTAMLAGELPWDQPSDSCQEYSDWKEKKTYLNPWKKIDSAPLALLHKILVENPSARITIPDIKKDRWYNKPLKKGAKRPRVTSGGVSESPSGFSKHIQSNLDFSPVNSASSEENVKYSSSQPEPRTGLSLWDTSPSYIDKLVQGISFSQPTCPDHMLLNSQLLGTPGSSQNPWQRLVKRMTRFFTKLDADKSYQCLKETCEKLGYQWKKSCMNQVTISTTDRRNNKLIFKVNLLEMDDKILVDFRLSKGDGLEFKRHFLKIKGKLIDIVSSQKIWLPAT

residual activity [1] [%] | residual activity [2] [%] | residual activity [3] [%] | residual activity [4] [%] | residual activity [5] [%] | residual activity [6] [%] | Structure (SMILES)
39 | 17 | 89 | 3 | 0 | 6 | Cc1ccc2cc(-c3n[nH]c4ccc(NC5CCNC5)cc34)[nH]c2c1 (configuration not stated)
64 | 83 | 81 | -2 | 2 | 40 | Cc1ccc2cc(-c3n[nH]c4ccc(NC5CCN(Cc6ccccc6)CC5)cc34)[nH]c2c1
